Source: article PMC11683478, “Bioprospecting of culturable marine biofilm bacteria for novel antimicrobial peptides” (iMeta, 2024)

What was measured:
Assay in all cases: Antibacterial screen at 200 μg/mL (cell density vs control)
Format in all cases: cell-based
Conditions in all cases: peptide 200 μg/mL, CAMHB, 5 × 10^5 CFU/mL, 37°C, 12 h, OD600; control (no AMP) = 1; three biological replicates
[1] = test system: Micrococcus luteus ATCC 4698
Procedure, shortened: (§1)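 CAMHB, 37°C; inoculum 5 × 10^5 CFU/mL from log phase; peptide 200 μg/mL final; 12 h; OD600 read, blank- and peptide-background-subtracted; n = 3, t-test vs untreated growth control. MIC = lowest peptide concentration with no visible growth.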

[2] = test system: Bacillus subtilis ATCC 23857
Procedure, shortened: as §1

[3] = test system: Staphylococcus aureus ATCC 12600
Procedure, shortened: as §1

[4] = test system: Salmonella bongori ATCC 43975
Procedure, shortened: as §1

[5] = test system: Acinetobacter baumannii ATCC 19606
Procedure, shortened: as §1

[6] = test system: Vibrio alginolyticus xv22
Procedure, shortened: as §1

Vibrio owensii ems001 = test system: Vibrio owensii ems001
Procedure, shortened: as §1

[7] = test system: Escherichia coli ATCC 11775
Procedure, shortened: as §1

Sequence: MVKLLKKMVSLYH [Cand-122, chemically synthesized candidate AMP predicted from marine biofilm bacteria]
- cell density relative to control, M. luteus ATCC 4698 [1]: 0.728
- cell density relative to control, B. subtilis ATCC 23857 [2]: 0.002
- cell density relative to control, S. aureus ATCC 12600 [3]: 0
- cell density relative to control, S. bongori ATCC 43975 [4]: 0.455
- cell density relative to control, A. baumannii ATCC 19606 [5]: 0.907
- cell density relative to control, V. alginolyticus xv22 [6]: 1
- cell density relative to control, V. owensii ems001 (Vibrio owensii ems001): 0.188
- cell density relative to control, E. coli ATCC 11775 [7]: 0.642

Sequence: MWAVARGRR [Cand-195, chemically synthesized candidate AMP predicted from marine biofilm bacteria]
- cell density relative to control, M. luteus ATCC 4698 [1]: 0.987
- cell density relative to control, B. subtilis ATCC 23857 [2]: 0.676
- cell density relative to control, S. aureus ATCC 12600 [3]: 0.945
- cell density relative to control, S. bongori ATCC 43975 [4]: 1
- cell density relative to control, A. baumannii ATCC 19606 [5]: 1
- cell density relative to control, V. alginolyticus xv22 [6]: 1
- cell density relative to control, V. owensii ems001 (Vibrio owensii ems001): 0.958
- cell density relative to control, E. coli ATCC 11775 [7]: 1

Sequence: MWKLPKWRNGRRRGFKIPRW [Cand-109, chemically synthesized candidate AMP predicted from marine biofilm bacteria]
- cell density relative to control, M. luteus ATCC 4698 [1]: 0.02
- cell density relative to control, B. subtilis ATCC 23857 [2]: 0.012
- cell density relative to control, S. aureus ATCC 12600 [3]: 0
- cell density relative to control, S. bongori ATCC 43975 [4]: 0.019
- cell density relative to control, A. baumannii ATCC 19606 [5]: 0.01
- cell density relative to control, V. alginolyticus xv22 [6]: 0.019
- cell density relative to control, V. owensii ems001 (Vibrio owensii ems001): 0.039
- cell density relative to control, E. coli ATCC 11775 [7]: 0.002

Sequence: MWTIYSGIKRSLHYCRRRGYYCSRYGYYS [Cand-43, chemically synthesized candidate AMP predicted from marine biofilm bacteria]
- cell density relative to control, M. luteus ATCC 4698 [1]: 0.297
- cell density relative to control, B. subtilis ATCC 23857 [2]: 0.67
- cell density relative to control, S. aureus ATCC 12600 [3]: 0.031
- cell density relative to control, S. bongori ATCC 43975 [4]: 0
- cell density relative to control, A. baumannii ATCC 19606 [5]: 0.385
- cell density relative to control, V. alginolyticus xv22 [6]: 0.124
- cell density relative to control, V. owensii ems001 (Vibrio owensii ems001): 0.215
- cell density relative to control, E. coli ATCC 11775 [7]: 0

Sequence: MWTVRPRICAARGRL [Cand-172, chemically synthesized candidate AMP predicted from marine biofilm bacteria]
- cell density relative to control, M. luteus ATCC 4698 [1]: 0.9
- cell density relative to control, B. subtilis ATCC 23857 [2]: 0
- cell density relative to control, S. aureus ATCC 12600 [3]: 0
- cell density relative to control, S. bongori ATCC 43975 [4]: 0.898
- cell density relative to control, A. baumannii ATCC 19606 [5]: 1
- cell density relative to control, V. alginolyticus xv22 [6]: 0
- cell density relative to control, V. owensii ems001 (Vibrio owensii ems001): 0
- cell density relative to control, E. coli ATCC 11775 [7]: 1

Sequence: MWWSKSIHQACFTRYRGYCRWCCTFSIRSCRY [Cand-3, chemically synthesized candidate AMP predicted from marine biofilm bacteria]
- cell density relative to control, M. luteus ATCC 4698 [1]: 1
- cell density relative to control, B. subtilis ATCC 23857 [2]: 1
- cell density relative to control, S. aureus ATCC 12600 [3]: 0
- cell density relative to control, S. bongori ATCC 43975 [4]: 0.438
- cell density relative to control, A. baumannii ATCC 19606 [5]: 0.702
- cell density relative to control, V. alginolyticus xv22 [6]: 0
- cell density relative to control, V. owensii ems001 (Vibrio owensii ems001): 0
- cell density relative to control, E. coli ATCC 11775 [7]: 0.786

Sequence: MWWSKSIHQASFTRYRSYCRGCCTFSIRSCRYKRRII [Cand-180, chemically synthesized candidate AMP predicted from marine biofilm bacteria]
- cell density relative to control, M. luteus ATCC 4698 [1]: 0
- cell density relative to control, B. subtilis ATCC 23857 [2]: 0
- cell density relative to control, S. aureus ATCC 12600 [3]: 0.107
- cell density relative to control, S. bongori ATCC 43975 [4]: 0.025
- cell density relative to control, A. baumannii ATCC 19606 [5]: 0
- cell density relative to control, V. alginolyticus xv22 [6]: 0
- cell density relative to control, V. owensii ems001 (Vibrio owensii ems001): 0
- cell density relative to control, E. coli ATCC 11775 [7]: 0

Sequence: MYSVWPKSLRSVAGRGPKHRC [Cand-139, chemically synthesized candidate AMP predicted from marine biofilm bacteria]
- cell density relative to control, M. luteus ATCC 4698 [1]: 1
- cell density relative to control, B. subtilis ATCC 23857 [2]: 0.931
- cell density relative to control, S. aureus ATCC 12600 [3]: 0
- cell density relative to control, S. bongori ATCC 43975 [4]: 0.426
- cell density relative to control, A. baumannii ATCC 19606 [5]: 0.959
- cell density relative to control, V. alginolyticus xv22 [6]: 0.013
- cell density relative to control, V. owensii ems001 (Vibrio owensii ems001): 0.342
- cell density relative to control, E. coli ATCC 11775 [7]: 0.764
